Measurements as given in patent US6461997B1, “Triazole sulfones having herbicidal activity” (Monsanto Technology LLC, priority 1999, dated 2002).

Experiments:
[1] = system: LOLMG (annual ryegrass); test: Post-emergence herbicidal activity, cool season; type: in vivo, Lolium multiflorum; details: abraded plants sprayed at 300, 100, 30 and 10 g/ha; about 14 days after treatment
Method: (§1) In another set of tests, the post-emergence activity of compounds of this invention was evaluated on the cool season species listed above. The following procedure was used.
(§2) A pre-prepared topsoil mixture (described above) was placed in a pot and compacted to a depth of 1.0 to 1.25 cm from the top of the pot. Seeds of each of several monocotyledonous and dicotyledonous annual plant species were placed on top of the soil. The seeds were covered with a mixture of 50% topsoil and 50% Rediearth™ in sufficient quantity to level-fill the pots. The pots were then placed on a greenhouse bench and subirrigated as needed.
(§3) When plants growing from the seeds had emerged and reached a suitable growth stage for post-emergence treatment, typically 9 to 14 days after planting, above-ground parts of the plants were subjected to a pre-treatment involving abrasion to create greater opportunity for foliar uptake of subsequently applied compounds. Abrasion was performed using garnet 200w particles applied with a Sears Craftsman hand-held sandblaster operated at approximately 850 kPa (50 psig) pressure.
(§4) A known amount of each test compound dissolved or suspended in an appropriate organic solvent was diluted with a 50:50 mix of acetone and water and applied to the plants by spraying with a standard spray nozzle in a spray volume of […] at a spray pressure of 511 kPa (30 psig). Only the compounds of Examples 1, 8-15 and 17-22 were included in post-emergence tests. Application rates for these compounds were 300, 100, 30 and 10 g/ha. Control plants were abraded but not sprayed.
(§5) After treatment the plants were placed in a greenhouse with an 18/13° C. day/night temperature regime and were subsequently watered as needed for growth. Approximately 14 days after treatment, the plants were observed and herbicidal efficacy recorded as percent inhibition by comparison with control plants. GR80 values were assigned for each compound as described above for the pre-emergence tests.

[2] = system: STEME (common chickweed); test: Pre-emergence herbicidal activity, cool season; type: in vivo, Stellaria media; details: lowest tested rate with 80% or greater inhibition; rates 300, 100, 30, 10 g/ha; about 14 days
Procedure, shortened: (§6)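 Seeds sown in sterilised fertilised topsoil received surface-applied compound in 50:50 acetone/water, typically at 300, 100, 30 and 10 g/ha, then greenhouse-grown at 30/21° C (warm-season species) or 18/13° C (cool-season species). Percent inhibition versus untreated plants was scored at about 14 days, giving GR80; an asterisk marks activity short of 80% at the top rate.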

[3] = system: SASKR (russian thistle); test: Pre-emergence herbicidal activity, cool season; type: in vivo, Salsola kali; details: lowest tested rate with 80% or greater inhibition; rates 300, 100, 30, 10 g/ha; about 14 days
Procedure, shortened: as §6

[4] = system: SINAR (wild mustard); test: Pre-emergence herbicidal activity, cool season; type: in vivo, Sinapis arvensis; details: lowest tested rate with 80% or greater inhibition; rates 300, 100, 30, 10 g/ha; about 14 days
Procedure, shortened: as §6

[5] = system: ALOMY (blackgrass); test: Post-emergence herbicidal activity, cool season; type: in vivo, Alopecurus myosuroides; details: abraded plants sprayed at 300, 100, 30 and 10 g/ha; about 14 days after treatment
Method: as §1, §2, §3, §4, §5

[6] = system: AGRRE (quackgrass (seedling)); test: Post-emergence herbicidal activity, cool season; type: in vivo, Elymus repens; details: abraded plants sprayed at 300, 100, 30 and 10 g/ha; about 14 days after treatment
Method: as §1, §2, §3, §4, §5

[7] = system: AEGCY (jointed goatgrass); test: Post-emergence herbicidal activity, cool season; type: in vivo, Aegilops cylindrica; details: abraded plants sprayed at 300, 100, 30 and 10 g/ha; about 14 days after treatment
Method: as §1, §2, §3, §4, §5

[8] = system: CHEAL (common lambsquarters); test: Pre-emergence herbicidal activity, warm season; type: in vivo, Chenopodium album; details: GR80 = lowest tested rate (300, 100, 30, 10 g/ha) with 80% or greater inhibition; approx. 14 days after treating; 30/21° C.
Procedure, shortened: as §6

[9] = system: AVEFA (wild oat); test: Post-emergence herbicidal activity, cool season; type: in vivo, Avena fatua; details: abraded plants sprayed at 300, 100, 30 and 10 g/ha; about 14 days after treatment
Method: as §1, §2, §3, §4, §5

[10] = system: AGSST (creeping bentgrass); test: Pre-emergence herbicidal activity, cool season; type: in vivo, Agrostis stolonifera; details: GR80 = lowest tested rate (300, 100, 30, 10 g/ha) with 80% or greater inhibition; approx. 14 days after treating; 18/13° C.
Procedure, shortened: as §6

[11] = system: SORVU (shattercane); test: Pre-emergence herbicidal activity, warm season; type: in vivo, Sorghum vulgare; details: GR80 = lowest tested rate (300, 100, 30, 10 g/ha) with 80% or greater inhibition; approx. 14 days after treating; 30/21° C.
Procedure, shortened: (§7)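 Activity is expressed as the rate giving 80% inhibition, with 300, 100, 30 and 10 g/ha typically tested. An asterisk marks activity short of 80% at the top rate. Warm-season grasses were held at 30/21 °C; cool-season blackgrass and wild buckwheat at 18/13 °C; scoring at about 14 days.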

[12] = system: LAMPU (purple deadnettle); test: Pre-emergence herbicidal activity, cool season; type: in vivo, Lamium purpureum; details: lowest tested rate with 80% or greater inhibition; rates 300, 100, 30, 10 g/ha; about 14 days
Procedure, shortened: as §6

[13] = system: GALAP (catchweed bedstraw); test: Pre-emergence herbicidal activity, cool season; type: in vivo, Galium aparine; details: lowest tested rate with 80% or greater inhibition; rates 300, 100, 30, 10 g/ha; about 14 days
Procedure, shortened: as §6

[14] = system: BROTE (downy brome); test: Post-emergence herbicidal activity, cool season; type: in vivo, Bromus tectorum; details: abraded plants sprayed at 300, 100, 30 and 10 g/ha; about 14 days after treatment
Method: as §1, §2, §3, §4, §5

[15] = system: SETVI (green foxtail); test: Post-emergence herbicidal activity, cool season; type: in vivo, Setaria viridis; details: abraded plants sprayed at 300, 100, 30 and 10 g/ha; about 14 days after treatment
Method: as §1, §2, §3, §4, §5

[16] = system: AGSST (creeping bentgrass); test: Post-emergence herbicidal activity, cool season; type: in vivo, Agrostis stolonifera; details: abraded plants sprayed at 300, 100, 30 and 10 g/ha; about 14 days after treatment
Method: as §1, §2, §3, §4, §5

[17] = system: PANDI (fall panicum); test: Pre-emergence herbicidal activity, warm season; type: in vivo, Panicum dichotomiflorum; details: GR80 = lowest tested rate (300, 100, 30, 10 g/ha) with 80% or greater inhibition; approx. 14 days after treating; 30/21° C.
Procedure, shortened: as §7

[18] = system: POLCO (wild buckwheat); test: Pre-emergence herbicidal activity, cool season; type: in vivo, Polygonum convolvulus; details: lowest tested rate with 80% or greater inhibition; rates 300, 100, 30, 10 g/ha; about 14 days
Procedure, shortened: (§8)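 Herbicidal efficacy was judged visually as percent inhibition compared with untreated plants some 14 days after treatment, giving GR80 over doses of 10 to 300 g/ha. Proso millet and crabgrass grew at 30/21 °C; blackgrass and wild buckwheat grew at 18/13 °C.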

[19] = system: VERPE (creeping speedwell); test: Pre-emergence herbicidal activity, cool season; type: in vivo, Veronica persicaria; details: lowest tested rate with 80% or greater inhibition; rates 300, 100, 30, 10 g/ha; about 14 days
Procedure, shortened: as §6

[20] = system: SETVI (green foxtail); test: Pre-emergence herbicidal activity, cool season; type: in vivo, Setaria viridis; details: GR80 = lowest tested rate (300, 100, 30, 10 g/ha) with 80% or greater inhibition; approx. 14 days after treating; 18/13° C.
Procedure, shortened: as §6

[21] = system: ECHCG (barnyardgrass); test: Pre-emergence herbicidal activity, warm season; type: in vivo, Echinochloa crus-galli; details: GR80 = lowest tested rate (300, 100, 30, 10 g/ha) with 80% or greater inhibition; approx. 14 days after treating; 30/21° C.
Procedure, shortened: as §7

[22] = system: PANMI (wild proso millet); test: Pre-emergence herbicidal activity, warm season; type: in vivo, Panicum miliaceum; details: GR80 = lowest tested rate (300, 100, 30, 10 g/ha) with 80% or greater inhibition; approx. 14 days after treating; 30/21° C.
Procedure, shortened: as §8

[23] = system: LOLMG (annual ryegrass); test: Pre-emergence herbicidal activity, cool season; type: in vivo, Lolium multiflorum; details: GR80 = lowest tested rate (300, 100, 30, 10 g/ha) with 80% or greater inhibition; approx. 14 days after treating; 18/13° C.
Procedure, shortened: as §6

[24] = system: SOLNI (black nightshade); test: Pre-emergence herbicidal activity, warm season; type: in vivo, Solanum nigrum; details: GR80 = lowest tested rate (300, 100, 30, 10 g/ha) with 80% or greater inhibition; approx. 14 days after treating; 30/21° C.
Procedure, shortened: as §6

[25] = system: ALOMY (blackgrass); test: Pre-emergence herbicidal activity, cool season; type: in vivo, Alopecurus myosuroides; details: GR80 = lowest tested rate (300, 100, 30, 10 g/ha) with 80% or greater inhibition; approx. 14 days after treating; 18/13° C.
Procedure, shortened: as §8

[26] = system: SETFA (giant foxtail); test: Pre-emergence herbicidal activity, warm season; type: in vivo, Setaria faberi; details: GR80 = lowest tested rate (300, 100, 30, 10 g/ha) with 80% or greater inhibition; approx. 14 days after treating; 30/21° C.
Procedure, shortened: as §7

[27] = system: AGRRE (quackgrass (seedling)); test: Pre-emergence herbicidal activity, cool season; type: in vivo, Elymus repens; details: GR80 = lowest tested rate (300, 100, 30, 10 g/ha) with 80% or greater inhibition; approx. 14 days after treating; 18/13° C.
Method: (§9) Tables 5 to 8 summarize results of tests conducted as described below to determine the pre-emergence herbicidal activity, in the form of a GR80 value, of illustrative compounds of this invention. […] Compounds of the invention were typically applied at rates of 300, 100, 30, and 10 g/ha. Where herbicidal activity was evident but 80% inhibition was not achieved at the highest rate tested, an asterisk (*) is shown in the following tables.
(§10) The pre-emergence tests were conducted by the following procedure. Topsoil was sieved to pass through a 1.27 cm screen. Fertilizer was added to the topsoil and the mixture was then sterilized by heating. The topsoil mixture was placed in a pot and compacted to a depth of 1.0 to 1.25 cm from the top of the pot. Seeds of each of several monocotyledonous and dicotyledonous annual plant species were placed on top of the soil. Additional soil was subsequently placed over the seeds to level-fill the pot. A known amount of each test compound dissolved or suspended in an appropriate organic solvent was diluted with a 50:50 mix of acetone and water and applied to the surface of the soil. After treatment the plants were placed in a greenhouse where they received 0.64 cm of overhead irrigation. All subsequent watering consisted of a light overhead mist and/or subirrigation as needed for germination and growth. Tables 5 and 6 below relate to warm season plant species which were placed after pre-emergence treatment in a greenhouse with a 30/21° C. day/night temperature regime. Tables 7 and 8 below relates to cool season plant species placed after pre-emergence treatment in a greenhouse or growth chamber with an 18/13° C. day/night temperature regime.
(§11) Approximately 14 days after planting and treating, the plants were observed and herbicidal efficacy recorded as percent inhibition by comparison with untreated plants.
(§12) The plant species usually regarded as weeds which were utilized in the tests are identified in the tables below according to the following legend, in which “d” indicates a dicotyledonous species and “m” a monocotyledonous species. All monocotyledonous species included in the tests herein are grasses.

[28] = system: BROTE (downy brome); test: Pre-emergence herbicidal activity, cool season; type: in vivo, Bromus tectorum; details: GR80 = lowest tested rate (300, 100, 30, 10 g/ha) with 80% or greater inhibition; approx. 14 days after treating; 18/13° C.
Method: as §9, §10, §11, §12

## CCN(CC)C(=O)n1cnc(S(=O)(=O)C(F)(F)SCCOC(=O)c2ccccc2)n1 [Example 22]
[1]
  Post-emergence activity GR80, LOLMG: [empty]
[2]
  Pre-emergence activity GR80, STEME: [empty]
[3]
  Pre-emergence activity GR80, SASKR: [empty]
[4]
  Pre-emergence activity GR80, SINAR: [empty]
[5]
  Post-emergence activity GR80, ALOMY: [empty]
[6]
  Post-emergence activity GR80, AGRRE: [empty]
[7]
  Post-emergence activity GR80, AEGCY: [empty]
[8]
  Pre-emergence activity (GR80) CHEAL: 300 g/ha
[9]
  Post-emergence activity GR80, AVEFA: [empty]
[10]
  Pre-emergence activity (GR80) AGSST: 300 g/ha
[11]
  Pre-emergence activity (GR80) SORVU: * (activity observed, at least at highest rate, but <80% inhibition)
[12]
  Pre-emergence activity GR80, LAMPU: [empty]
[13]
  Pre-emergence activity GR80, GALAP: [empty]
[14]
  Post-emergence activity GR80, BROTE: [empty]
[15]
  Post-emergence activity GR80, SETVI: [empty]
[16]
  Post-emergence activity GR80, AGSST: [empty]
[17]
  Pre-emergence activity (GR80) PANDI: 300 g/ha
[18]
  Pre-emergence activity GR80, POLCO: [empty]
[19]
  Pre-emergence activity GR80, VERPE: 300 g/ha

## CCSC(F)(F)S(=O)(=O)c1ncn(C(=O)N(C)CCOC)n1 [Example 52]
[2]
  Pre-emergence activity GR80, STEME: [empty]
[3]
  Pre-emergence activity GR80, SASKR: 100 g/ha
[20]
  Pre-emergence activity (GR80) SETVI: 300 g/ha
[21]
  Pre-emergence activity (GR80) ECHCG: 300 g/ha
[4]
  Pre-emergence activity GR80, SINAR: 300 g/ha
[22]
  Pre-emergence activity (GR80) PANMI: 100 g/ha
[23]
  Pre-emergence activity (GR80) LOLMG: 300 g/ha
[24]
  Pre-emergence activity (GR80) SOLNI: 300 g/ha
[25]
  Pre-emergence activity (GR80) ALOMY: 300 g/ha
[26]
  Pre-emergence activity (GR80) SETFA: 300 g/ha
[10]
  Pre-emergence activity (GR80) AGSST: 300 g/ha
[12]
  Pre-emergence activity GR80, LAMPU: [empty]
[13]
  Pre-emergence activity GR80, GALAP: [empty]
[27]
  Pre-emergence activity (GR80) AGRRE: 100 g/ha
[17]
  Pre-emergence activity (GR80) PANDI: 30 g/ha
[18]
  Pre-emergence activity GR80, POLCO: [empty]
[28]
  Pre-emergence activity (GR80) BROTE: 300 g/ha
[19]
  Pre-emergence activity GR80, VERPE: 30 g/ha
